Test results taken from US7407982B2, “Oligo or polyalkylene glycol-coupled thrombin inhibitors” (HaemoSys GmbH, priority 2001, dated 2008).
Like-named read-outs stand apart in the source and are kept apart here.

Columns and labels:
[1] = molecular target: T1, human α-thrombin (Homo sapiens, UniProt P00734); assay: Determination of Ki for thrombin inhibition (chromogenic or fluorogenic substrate, Dixon); type: biochemical; details: for KiTrypsin/KiThrombin: Example 8, selectivity quotient
T1 construct: 50 μl human α-thrombin (Kordia); purchased Kordia
Procedure: The Ki values are the average values of at least three calculations.
For determining the thrombin inhibiting effect of all reversibly binding inhibitors and inhibitor conjugates with inhibiting constants smaller than 1 nM, a fluorescence spectrometer (LS50B from the company Perkin Elmer) was used. […] The Ki values are the average values of at least three calculations.

[2] = molecular target: T2, trypsin (Bos taurus, UniProt P00760); assay: Ki values for trypsin, determined analogously; type: biochemical
T2 sequence (P00760 24-246): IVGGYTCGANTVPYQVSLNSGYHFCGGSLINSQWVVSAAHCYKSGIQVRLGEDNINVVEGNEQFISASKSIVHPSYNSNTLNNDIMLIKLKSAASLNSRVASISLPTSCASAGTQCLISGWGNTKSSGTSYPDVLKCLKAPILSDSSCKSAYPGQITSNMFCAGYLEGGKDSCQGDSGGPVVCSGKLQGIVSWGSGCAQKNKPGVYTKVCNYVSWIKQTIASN
Procedure: The Ki values for trypsin were determined analogously.
For optimizing the inhibitor conjugates, in particular of the following Examples 1 and 2, suitable groups R1 were sought which allow as strong a thrombin inhibition as possible. For examining the selectivity of the compounds, the inhibiting constants for trypsin were determined as well. The higher the quotient [KiTrypsin/KiThrombin], the more selectively the compound functions as a thrombin inhibitor. In order to facilitate the synthesis, this optimization was first carried out without coupling a polyalkylene glycol group to inhibitor molecules of formula (II) as listed in Table I. These compounds, which are active as thrombin inhibitors themselves, can be used as synthetic intermediates for the inhibitor conjugates of formula (I). As a central component, a glycyl-prolyl-dipeptide was consistently incorporated into the inhibitors.

[3] = Example 8, read-out: KiThrombin
[4] = Table I, formula (II) compounds
[5] = Table 2, formula (III) compounds

Row | Ki [1, 4] [nM] | Ki Trypsin/Ki Thrombin ([1]; Table I, selectivity quotient) | Compound | other results
1 | – | – | 4-Methoxy-benezenesulfonyl-Asn(4-[MeO-PEG5000-CH2CH2CO—NHCH2]-benzyl-Pro-4-amidinobenzylamide | Ki [1, 3]: 0.19 nM
2 | – | – | 4-Methoxy-benzenesulfonyl-Lys(propionyl-PEG5000-OMe)-Pro-4-amidinobenzylamide | Ki ([2]; Example 8, read-out: KiTrypsin): 61 nM; KiTrypsin/KiThrombin [1]: 64; Ki [1, 3]: 0.95 nM
3 | 0.44 | 45 | COc1ccc(S(=O)(=O)NCC(=O)N2CCC[C@H]2C(=O)NCc2ccc(C(=N)N)cc2)cc1Cl [1a] | –
4 | 0.64 | 20 | COc1ccc(S(=O)(=O)NCC(=O)N2CCC[C@H]2C(=O)NCc2ccc(C(=N)N)cc2)cc1C [1b] | –
5 | 2.5 | 2.3 | N=C(N)c1ccc(CNC(=O)[C@@H]2CCCN2C(=O)CNS(=O)(=O)c2ccc(Cl)c(Cl)c2)cc1 [4a] | –
6 | 2.8 | 2.9 | Cc1cccc(S(=O)(=O)NCC(=O)N2CCC[C@H]2C(=O)NCc2ccc(C(=N)N)cc2)c1 [4b] | –
7 | 48 | 0.47 | N#Cc1cccc(S(=O)(=O)NCC(=O)N2CCC[C@H]2C(=O)NCc2ccc(C(=N)N)cc2)c1 [33a] | –
8 | 66 | 0.42 | CCOc1ccc(S(=O)(=O)NCC(=O)N2CCC[C@H]2C(=O)NCc2ccc(C(=N)N)cc2)cc1 [33b] | –
9 | – | – | N=C(N)c1ccc(CNC(=O)C2CCCN2C(=O)C(CC2CCCCC2)NCC(=O)O)cc1 [H-D-N(CH2—COOH)Cha-Pro-4-(amidino)benzylamide, reference compound] | KiTrypsin/KiThrombin [1]: 12; Ki [1, 3]: 0.3 nM
10 | – | – | N=C(N)N1CCC(CNC(=O)C2CCCN2C(=O)C(CC2CCCCC2)NCC(=O)O)CC1 [H-D-N(CH2—COOH)Cha-Pro-4-(amidomethyl)-N(amidino)piperidine, reference compound] | KiTrypsin/KiThrombin [1]: 173; Ki [1, 3]: 1.3 nM
11 | – | – | COc1ccc(S(=O)(=O)NC(CCCCN)C(=O)N2CCCC2C(=O)NCc2ccc(C(=N)N)cc2)cc1 (stereo not drawn) [No. 53, 4-Methoxy-benezenesulfonyl-Lys-Pro-4-amidinobenzylamide] | KiTrypsin/KiThrombin [1]: 112; Ki [1, 3]: 0.73 nM
12 | – | – | COc1ccc(S(=O)(=O)NC(CC(=O)O)C(=O)N2CCCC2C(=O)NCc2ccc(C(=N)N)cc2)cc1 (stereo not drawn) [No. 55, 4-Methoxy-benezenesulfonyl-Asp-Pro-4-amidinobenzylamide] | KiTrypsin/KiThrombin [1]: 48; Ki [1, 3]: 1.6 nM
13 | 1.3 | 12.1 | COc1cc(C)c(S(=O)(=O)NCC(=O)N2CCC[C@H]2C(=O)NCc2ccc(C(=N)N)cc2)c(C)c1C [compound 2] | Ki [2, 4]: 15.7 nM
14 | 4.7 | 4.2 | COc1ccc(S(=O)(=O)NCC(=O)N2CCC[C@H]2C(=O)NCc2ccc(C(=N)N)cc2)cc1OC [compound 8] | –
15 | 5.9 | 3.3 | N=C(N)c1ccc(CNC(=O)[C@@H]2CCCN2C(=O)CNS(=O)(=O)c2cc(Cl)c(Cl)cc2Cl)cc1 [compound 9] | –
16 | 7.8 | 0.5 | N=C(N)c1ccc(CNC(=O)[C@@H]2CCCN2C(=O)CNS(=O)(=O)c2cccc3ccccc23)cc1 [compound 10] | –
17 | 8.5 | 0.4 | N=C(N)c1ccc(CNC(=O)[C@@H]2CCCN2C(=O)CNS(=O)(=O)c2cc(Cl)cc(Cl)c2)cc1 [compound 11] | –
18 | 8.5 | 6.8 | N=C(N)c1ccc(CNC(=O)[C@@H]2CCCN2C(=O)CNS(=O)(=O)c2ccc3ccccc3c2)cc1 [compound 12] | Ki Trypsin/Ki Thrombin ([1]; Table 2, selectivity quotient): 6.8
19 | 10 | 2.7 | N=C(N)c1ccc(CNC(=O)[C@@H]2CCCN2C(=O)CNS(=O)(=O)c2ccc(Cl)cc2)cc1 [compound 13] | –
20 | 10.5 | 1.1. | Cc1cc(S(=O)(=O)NCC(=O)N2CCC[C@H]2C(=O)NCc2ccc(C(=N)N)cc2)c(Cl)cc1Cl [compound 14] | –
21 | 10.8 | 0.96 | N=C(N)c1ccc(CNC(=O)[C@@H]2CCCN2C(=O)CNS(=O)(=O)c2ccccc2)cc1 [compound 15] | –
22 | 12.7 | 2.2 | Cc1c(C)c(C)c(S(=O)(=O)NCC(=O)N2CCC[C@H]2C(=O)NCc2ccc(C(=N)N)cc2)c(C)c1C [compound 16] | –
23 | 12.7 | 0.87 | N=C(N)c1ccc(CNC(=O)[C@@H]2CCCN2C(=O)CNS(=O)(=O)c2cccc(Cl)c2Cl)cc1 [compound 17] | –

Row | Ki [1, 4] [nM] | Ki Trypsin/Ki Thrombin ([1]; Table I, selectivity quotient) | Compound | other results
24 | 13.4 | 2.5 | Cc1cc(C)c(C)c(S(=O)(=O)NCC(=O)N2CCC[C@H]2C(=O)NCc2ccc(C(=N)N)cc2)c1C [compound 18] | –
25 | 13.5 | 0.67 | CC(C)c1cc(C(C)C)c(S(=O)(=O)NCC(=O)N2CCC[C@H]2C(=O)NCc2ccc(C(=N)N)cc2)c(C(C)C)c1 [compound 19] | Ki [2, 4]: 9.1 nM
26 | 13.6 | 0.22 | N=C(N)c1ccc(CNC(=O)[C@@H]2CCCN2C(=O)CNS(=O)(=O)CC2CCCCC2)cc1 [compound 20] | Ki [2, 4]: 3.1 nM
27 | 15.1 | 1.2 | N=C(N)c1ccc(CNC(=O)[C@@H]2CCCN2C(=O)CNS(=O)(=O)c2ccc(Cl)cc2Cl)cc1 [compound 21] | –
28 | 16.1 | 0.88 | Cc1ccc(S(=O)(=O)NCC(=O)N2CCC[C@H]2C(=O)NCc2ccc(C(=N)N)cc2)cc1 [compound 22] | –
29 | 16.4 | 0.71 | N=C(N)c1ccc(CNC(=O)[C@@H]2CCCN2C(=O)CNS(=O)(=O)c2ccc(Cl)c(Cl)c2Cl)cc1 [compound 23] | –
30 | 16.6 | 0.80 | Cc1cc(C)c(S(=O)(=O)NCC(=O)N2CCC[C@H]2C(=O)NCc2ccc(C(=N)N)cc2)c(C)c1 [compound 24] | –
31 | 16.9 | 1.1 | Cc1cc(Cl)cc(Cl)c1S(=O)(=O)NCC(=O)N1CCC[C@H]1C(=O)NCc1ccc(C(=N)N)cc1 [compound 25] | –
32 | 19.1 | 2.6 | CCc1ccc(S(=O)(=O)NCC(=O)N2CCC[C@H]2C(=O)NCc2ccc(C(=N)N)cc2)cc1 [compound 26] | –
33 | 19.3 | 0.98 | N=C(N)c1ccc(CNC(=O)[C@@H]2CCCN2C(=O)CNS(=O)(=O)c2ccccc2Cl)cc1 [compound 27] | –
34 | 30.3 | 1.2 | Cc1c(C)c(S(=O)(=O)NCC(=O)N2CCC[C@H]2C(=O)NCc2ccc(C(=N)N)cc2)c(C)c2c1OC(C)(C)C2 [compound 28] | Ki [2, 4]: 37.1 nM
35 | 32.2 | 0.32 | CC(C)(C)c1ccc(S(=O)(=O)NCC(=O)N2CCC[C@H]2C(=O)NCc2ccc(C(=N)N)cc2)cc1 [compound 29] | –
36 | 38 | 0.42 | N=C(N)c1ccc(CNC(=O)[C@@H]2CCCN2C(=O)CNS(=O)(=O)c2cccc([N+](=O)[O-])c2)cc1 [compound 30] | –
37 | 41.9 | 0.39 | N=C(N)c1ccc(CNC(=O)[C@@H]2CCCN2C(=O)CNS(=O)(=O)CCc2ccccc2)cc1 [compound 31] | Ki [2, 4]: 16.5 nM
38 | 44.3 | 0.05 | N=C(N)c1ccc(CNC(=O)[C@@H]2CCCN2C(=O)CNS(=O)(=O)/C=C/c2ccccc2)cc1 [compound 32] | –
39 | 76 | 0.33 | N#Cc1ccc(S(=O)(=O)NCC(=O)N2CCC[C@H]2C(=O)NCc2ccc(C(=N)N)cc2)cc1 [compound 34] | –
40 | 115 | 0.11 | N=C(N)c1ccc(CNC(=O)[C@@H]2CCCN2C(=O)CNS(=O)(=O)c2ccc([N+](=O)[O-])cc2)cc1 [compound 35] | –
41 | – | – | N=C(N)c1ccc(CNC(=O)C2CCCN2C(=O)C(CO)NS(=O)(=O)c2ccc3ccccc3c2)cc1 (stereo not shown) [compound 38] | Ki [1, 5]: 2.54 nM; Ki Trypsin/Ki Thrombin ([1]; Table 2, selectivity quotient): 10.9
42 | – | – | N=C(N)c1ccc(CNC(=O)C2CCCN2C(=O)C(CC(N)=O)NS(=O)(=O)c2ccc3ccccc3c2)cc1 (stereo not shown) [compound 39] | Ki [1, 5]: 3.4 nM; Ki Trypsin/Ki Thrombin ([1]; Table 2, selectivity quotient): 11
43 | – | – | N=C(N)c1ccc(CNC(=O)C2CCCN2C(=O)C(CCC(N)=O)NS(=O)(=O)c2ccc3ccccc3c2)cc1 (stereo not shown) [compound 40] | Ki [1, 5]: 3.8 nM; Ki Trypsin/Ki Thrombin ([1]; Table 2, selectivity quotient): 4.2
44 | – | – | N=C(N)c1ccc(CNC(=O)C2CCCN2C(=O)C(CC(=O)O)NS(=O)(=O)c2ccc3ccccc3c2)cc1 (stereo not shown) [compound 42] | Ki [1, 5]: 24.1 nM; Ki Trypsin/Ki Thrombin ([1]; Table 2, selectivity quotient): 2.9
45 | – | – | COc1ccc(S(=O)(=O)NC(CC(=O)NCc2cccc(C#N)c2)C(=O)N2CCCC2C(=O)NCc2ccc(C(=N)N)cc2)cc1 (stereo not shown) [compound 46] | Ki [1, 5]: 0.061 nM; Ki Trypsin/Ki Thrombin ([1]; Table 2, selectivity quotient): 1163
46 | – | – | COc1ccc(S(=O)(=O)N[C@@H](CC(=O)O)C(=O)N2CCC[C@H]2C(=O)NCc2ccc(C(=N)N)cc2)cc1 [compound 55] | Ki [1, 5]: 1.6 nM; Ki Trypsin/Ki Thrombin ([1]; Table 2, selectivity quotient): 48

Row | Compound | Ki [1, 4] [nM] | Ki Trypsin/Ki Thrombin ([1]; Table I, selectivity quotient) | other results
47 | N=C(N)c1ccc(CNC(=O)[C@@H]2CCCN2C(=O)CNS(=O)(=O)Cc2ccccc2)cc1 [compound 6] | 3.6 | 2.1 | –
